Where “and” joins values, the source holds several entries; their conditions need not be identical. Equal entries are not always repeated. Toxic doses and inconclusive results are not listed.
Test system: P388 leukemia ip, CD2F1 mice, survival T/C
Test: NCI In Vivo Anticancer Drug Screen. Data for tumor model P388 Leukemia (intraperitoneal) in CD2F1 (CDF1) mice
Conditions: endpoint: median survival time, higher = longer survival
Procedure, shortened: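 Mice carrying the transplanted tumor received test compound or vehicle. Survival was recorded in each group, and the value is the treated-group measurement divided by that of the vehicle-treated control group.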

[1] = dose: 50.0 mg/kg/injection, schedule: Q01DX005 (ip), vehicle: saline with Tween-80
[2] = dose: 100.0 mg/kg/injection, schedule: Q01DX005 (ip), vehicle: saline with Tween-80
[3] = dose: 200.0 mg/kg/injection, schedule: Q01DX005 (ip), vehicle: saline with Tween-80
[4] = dose: 50.0 mg/kg/injection, schedule: Q01DX005 (ip), vehicle: Klucel (hydroxypropylcellulose) (HPC)
[5] = dose: 100.0 mg/kg/injection, schedule: Q01DX005 (ip), vehicle: Klucel (hydroxypropylcellulose) (HPC)
[6] = dose: 200.0 mg/kg/injection, schedule: Q01DX005 (ip), vehicle: Klucel (hydroxypropylcellulose) (HPC)
[7] = dose: 50.0 mg/kg/injection, schedule: Q01DX009 (ip), vehicle: Klucel (hydroxypropylcellulose) (HPC)
[8] = dose: 100.0 mg/kg/injection, schedule: Q01DX009 (ip), vehicle: Klucel (hydroxypropylcellulose) (HPC)

CC(Oc1ccccc1)C(=O)O (stereo unspecified)
T/C (dose: 50.0 mg/kg/injection, schedule: Q01DX009 (ip), vehicle: saline with Tween-80): 98 % of control
T/C (dose: 100.0 mg/kg/injection, schedule: Q01DX009 (ip), vehicle: saline with Tween-80): 97 % of control

COc1nc(N)nc2c1ncn2C1OC(CO)CC1O (stereo unspecified)
T/C [1]: 86 % of control
T/C [2]: 88 % of control
T/C [3]: 97 % of control

CCCOC(=O)C1(N)CCCC1
T/C (dose: 100.0 mg/kg/injection, schedule: Q04DX003 (ip), vehicle: saline): 100 % of control
T/C (dose: 200.0 mg/kg/injection, schedule: Q04DX003 (ip), vehicle: saline): 113 % of control
T/C (dose: 400.0 mg/kg/injection, schedule: Q04DX003 (ip), vehicle: saline): 118 % of control

CC(=O)NC(CCS)C(N)=O (stereo unspecified)
T/C [4]: 87 % of control
T/C [5]: 99 % of control
T/C [6]: 97 % of control

CCSCC1C(=O)C23C(O)C1CCC2C12COC3(O)C(O)C1C(C)(C)CCC2O (stereo unspecified)
T/C (dose: 22.5 mg/kg/injection, schedule: Q01DX009 (ip), vehicle: saline with Tween-80): 108 % of control
T/C (dose: 45.0 mg/kg/injection, schedule: Q01DX009 (ip), vehicle: saline with Tween-80): 112 % of control
T/C (dose: 90.0 mg/kg/injection, schedule: Q01DX009 (ip), vehicle: saline with Tween-80): 94 % of control

Cc1c(C)n(C)c(=S)n(C)c1=S
T/C [4]: 97 % of control
T/C [5]: 99 % of control
T/C [6]: 97 % of control

Cc1cc(=O)[nH]c(SCC(=O)c2ccccc2)n1
T/C [4]: 102 % of control
T/C [5]: 99 % of control
T/C [6]: 102 % of control

CC(C)OC(=O)c1ccc(=O)oc1
T/C (dose: 100.0 mg/kg/injection, schedule: Q04DX003 (ip), vehicle: Klucel (hydroxypropylcellulose) (HPC)): 105 % of control
T/C (dose: 200.0 mg/kg/injection, schedule: Q04DX003 (ip), vehicle: Klucel (hydroxypropylcellulose) (HPC)): 99 % of control
T/C (dose: 400.0 mg/kg/injection, schedule: Q04DX003 (ip), vehicle: Klucel (hydroxypropylcellulose) (HPC)): 110 % of control

CCOC(=O)N1CCc2cc3c(cc2C1Cc1ccc(OC)c(OC)c1CCl)OCO3 (stereo unspecified)
T/C [1]: 100 % of control
T/C [2]: 92 % of control

CCSc1nc(N)c(Br)c(Sc2nc(N)nc3nc[nH]c23)n1
T/C [1]: 103 % of control
T/C [2]: 101 % of control
T/C [3]: 97 % of control

O=[N+]([O-])c1ccc(N=N/C(=N\Nc2ccccc2)c2nc3ccccc3[nH]2)c([N+](=O)[O-])c1
T/C [1]: 97 % of control
T/C [2]: 95 % of control
T/C [3]: 97 % of control

Nc1n[nH][nH]c1=O
T/C (dose: 60.0 mg/kg/injection, schedule: Q01DX005 (ip), vehicle: saline): 100 % of control
T/C (dose: 120.0 mg/kg/injection, schedule: Q01DX005 (ip), vehicle: saline): 116 % of control
T/C (dose: 240.0 mg/kg/injection, schedule: Q01DX005 (ip), vehicle: saline): 100 % of control

c1nc(N2CCOCC2)c2[nH]cnc2n1
T/C [4]: 99 % of control and 91 % of control
T/C [5]: 88 % of control
T/C [6]: 91 % of control

Cc1cc([N+](=O)[O-])ccc1NC(=O)n1nnc2cc(Cl)ccc21
T/C [7]: 98 % of control
T/C [8]: 98 % of control
T/C (dose: 200.0 mg/kg/injection, schedule: Q01DX009 (ip), vehicle: Klucel (hydroxypropylcellulose) (HPC)): 107 % of control

CC1(C(Cl)(Cl)Cl)C=C(Cl)C(=O)C(Cl)=C1
T/C (dose: 25.0 mg/kg/injection, schedule: Q01DX005 (ip), vehicle: Klucel (hydroxypropylcellulose) (HPC)): 99 % of control
T/C [4]: 98 % of control and 92 % of control
T/C [5]: 102 % of control
T/C [6]: 92 % of control

c1ccc(Cn2ccnc2CSCCSCc2nccn2Cc2ccccc2)cc1
T/C (dose: 30.0 mg/kg/injection, schedule: Q01DX005 (ip), vehicle: Klucel (hydroxypropylcellulose) (HPC)): 101 % of control
T/C (dose: 60.0 mg/kg/injection, schedule: Q01DX005 (ip), vehicle: Klucel (hydroxypropylcellulose) (HPC)): 99 % of control and 90 % of control
T/C (dose: 120.0 mg/kg/injection, schedule: Q01DX005 (ip), vehicle: Klucel (hydroxypropylcellulose) (HPC)): 99 % of control and 105 % of control
T/C (dose: 240.0 mg/kg/injection, schedule: Q01DX005 (ip), vehicle: Klucel (hydroxypropylcellulose) (HPC)): 97 % of control

S=c1nc[nH]c2cc3cn[nH]c3cc12
T/C [1]: 94 % of control
T/C [2]: 96 % of control
T/C [3]: 92 % of control

O=C(CSc1ccccc1)c1ccccc1
T/C (dose: 10.0 mg/kg/injection, schedule: Q01DX005 (ip), vehicle: Klucel (hydroxypropylcellulose) (HPC)): 101 % of control
T/C (dose: 20.0 mg/kg/injection, schedule: Q01DX005 (ip), vehicle: Klucel (hydroxypropylcellulose) (HPC)): 102 % of control
T/C (dose: 40.0 mg/kg/injection, schedule: Q01DX005 (ip), vehicle: Klucel (hydroxypropylcellulose) (HPC)): 101 % of control

CCCCC/C(=C/C=C/c1ccc(Cl)cc1)CN(C)C
T/C [7]: 111 % of control
T/C [8]: 110 % of control

— PubChem BioAssay AID330 (DTP/NCI, 2004)
